From patent US11414404B2, “Compounds for the treatment of BRAF-associated diseases and disorders” (Array BioPharma Inc., priority 2019, dated 2022)
Where a name gives a salt, the structure may show the parent alone.

Tests used:
P-gp (MDR1) = P-gp (MDR1) (Homo sapiens (Human), UniProt P08183); test: MDR1 LLC-PK1 permeability assay: efflux ratio; settings: pig, LLC-PK1
Description: (§1) Both LLC-PK1 and MDR1 transfected LLC-PK1 cells were cultured and plated according to manufacturer's recommendations with the exception that the passage media contained only 2% fetal bovine serum to extend passage time out to seven days.
(§2) Both positive and negative controls were used to assess functionality of P-gp or BCRP efflux in the assays. […] Final organic concentration in the assay was 1%. All dosing solutions contained 10 μM lucifer yellow to monitor LLC-PK1 or MDCKII cell monolayer integrity.
(§3) For the apical to basolateral determination (A to B), 75 μL of the test article in transport buffer were added to the apical side of the individual transwells and 250 μL of basolateral media, without compound or lucifer yellow, were added to each well. For the basolateral to apical determination (B to A), 250 μL of test article in transport buffer were added to each well and 75 μL transport buffer, without compound or lucifer yellow, were added to each transwell. All tests were performed in triplicate, and each compound was tested for both apical to basolateral and basolateral to apical transport. The plates were incubated for 2 hours on a Lab-Line Instruments Titer Orbital Shaker (VWR, West Chester, Pa.) at 50 rpm and 37° C. with 5% CO2. All culture plates were removed from the incubator and 50 μL of media were removed from the apical and basolateral portion of each well and added to 150 μL of 1 μM labetalol in 2:1 acetonitrile (acetonitrile): H2O, v/v.
(§4) These values were accepted when found to be below 2% for apical to basolateral and 5% basolateral to apical flux across the MDR1-transfected LLC-PK1 or BCRP-transfected MDCKII cell monolayers. The plates were sealed and the contents of each well analyzed by LC-MS/MS. The compound concentrations were determined from the ratio of the peak areas of the compound to the internal standard (labetalol) in comparison to the dosing solution.
(§5) The LC-MS/MS system was comprised of an HTS-PAL autosampler (Leap Technologies, Carrboro, N.C.), an HP1200 HPLC (Agilent, Palo Alto, Calif.), and a MDS Sciex 4000 Q Trap system (Applied Biosystems, Foster City, Calif.). […] The total run time, including re-equilibration, for a single injection was 1.2 minutes. Mass spectrometric detection of the analytes was accomplished using the ion spray positive mode.
(§6) An efflux ratio is calculated from the mean apical to basolateral (A−B) Papp data and basolateral to apical (B−A) Papp data: Efflux ratio=Papp(B−A)/Papp(A−B)

[1] = target: full-length FLAG-tagged B-Raf(V600E) (Homo sapiens (Human), UniProt P15056, V600E); test: BRAF V600E enzyme assay (TR-FRET competitive displacement of fluorescent tracer); format: binding; settings: averaged IC50; 60 min at ambient temperature; 11-point dosing, top dose 10 μM
Text: A competitive displacement assay was configured for B-Raf that monitors the amount of a fluorescently-tagged “tracer” bound to B-Raf via TR-FRET from an anti-tag Eu-labeled antibody also bound to B-Raf.
[formula] • where: • Xmax Average Uninhibited Controls • Xmin Average Background
A 4-parameter logistic model was the fit to the POC data for each compound.

[2] = MDR1 LLC-PK1 and BCRP MDCKII permeability assay: permeability coefficient (Papp)
Description: as §1
(§7) BCRP transfected MDCKII cells were cultured and plated according to manufacturer's recommendations. Assay conditions included with and without the BCRP-specific inhibitor, K0143, at a concentration of 0.3 μM to ascertain the contribution of BCRP to the efflux value of the test compound.
as §2, §3, §4, §5
where Cd, V, t and C0 are the detected concentration (μM), the volume on the dosing side (mL); the incubation time (s) and the initial dosing concentration (μM), respectively. The calculations for Papp were made for each replicate and then averaged.

BCRP = BCRP (Homo sapiens (Human), UniProt Q9UNQ0); test: BCRP MDCKII permeability assay: efflux ratio; settings: dog
BCRP, sequence (Q9UNQ0 whole entry, species assumed): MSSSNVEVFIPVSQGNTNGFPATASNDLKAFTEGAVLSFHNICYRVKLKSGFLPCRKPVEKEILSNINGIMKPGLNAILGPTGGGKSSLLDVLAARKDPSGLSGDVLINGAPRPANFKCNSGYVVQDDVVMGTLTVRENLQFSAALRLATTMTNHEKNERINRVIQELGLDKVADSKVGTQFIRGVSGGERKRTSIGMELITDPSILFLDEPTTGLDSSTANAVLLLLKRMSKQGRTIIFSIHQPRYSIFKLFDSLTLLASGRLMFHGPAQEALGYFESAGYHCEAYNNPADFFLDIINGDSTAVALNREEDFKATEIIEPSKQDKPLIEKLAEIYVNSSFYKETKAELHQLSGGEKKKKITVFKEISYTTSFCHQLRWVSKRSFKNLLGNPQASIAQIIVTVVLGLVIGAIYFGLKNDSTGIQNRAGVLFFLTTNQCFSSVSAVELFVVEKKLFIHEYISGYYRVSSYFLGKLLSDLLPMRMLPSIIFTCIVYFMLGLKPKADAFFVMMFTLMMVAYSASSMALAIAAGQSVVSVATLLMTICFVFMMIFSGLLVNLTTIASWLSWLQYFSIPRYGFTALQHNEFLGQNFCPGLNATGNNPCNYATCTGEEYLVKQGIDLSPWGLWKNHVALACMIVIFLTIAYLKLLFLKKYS
Description: as §7, §2, §3, §4, §5, §6

full-length FLAG-tagged B-Raf(V600E), sequence (P15056 whole entry V600E): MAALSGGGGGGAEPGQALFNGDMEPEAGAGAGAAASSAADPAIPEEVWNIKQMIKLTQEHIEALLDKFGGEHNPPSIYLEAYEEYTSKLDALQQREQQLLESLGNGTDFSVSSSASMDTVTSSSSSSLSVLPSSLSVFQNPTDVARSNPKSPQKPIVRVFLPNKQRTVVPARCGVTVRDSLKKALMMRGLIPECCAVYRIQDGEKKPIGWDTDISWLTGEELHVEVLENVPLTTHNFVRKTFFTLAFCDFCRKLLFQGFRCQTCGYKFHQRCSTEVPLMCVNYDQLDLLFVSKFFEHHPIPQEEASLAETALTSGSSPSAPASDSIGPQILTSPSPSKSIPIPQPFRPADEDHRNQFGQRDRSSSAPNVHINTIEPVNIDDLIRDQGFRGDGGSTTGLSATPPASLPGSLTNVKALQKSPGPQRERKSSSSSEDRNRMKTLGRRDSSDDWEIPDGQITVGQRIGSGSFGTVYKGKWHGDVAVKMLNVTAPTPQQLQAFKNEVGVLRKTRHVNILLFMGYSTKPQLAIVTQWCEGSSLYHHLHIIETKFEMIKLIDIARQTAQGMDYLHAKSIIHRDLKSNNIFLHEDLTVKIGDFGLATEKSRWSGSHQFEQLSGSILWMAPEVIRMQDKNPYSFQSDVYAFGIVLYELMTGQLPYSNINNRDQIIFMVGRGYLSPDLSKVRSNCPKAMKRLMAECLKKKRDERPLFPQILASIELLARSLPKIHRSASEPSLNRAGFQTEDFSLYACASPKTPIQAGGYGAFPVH
P-gp (MDR1), sequence (P08183 whole entry, species assumed): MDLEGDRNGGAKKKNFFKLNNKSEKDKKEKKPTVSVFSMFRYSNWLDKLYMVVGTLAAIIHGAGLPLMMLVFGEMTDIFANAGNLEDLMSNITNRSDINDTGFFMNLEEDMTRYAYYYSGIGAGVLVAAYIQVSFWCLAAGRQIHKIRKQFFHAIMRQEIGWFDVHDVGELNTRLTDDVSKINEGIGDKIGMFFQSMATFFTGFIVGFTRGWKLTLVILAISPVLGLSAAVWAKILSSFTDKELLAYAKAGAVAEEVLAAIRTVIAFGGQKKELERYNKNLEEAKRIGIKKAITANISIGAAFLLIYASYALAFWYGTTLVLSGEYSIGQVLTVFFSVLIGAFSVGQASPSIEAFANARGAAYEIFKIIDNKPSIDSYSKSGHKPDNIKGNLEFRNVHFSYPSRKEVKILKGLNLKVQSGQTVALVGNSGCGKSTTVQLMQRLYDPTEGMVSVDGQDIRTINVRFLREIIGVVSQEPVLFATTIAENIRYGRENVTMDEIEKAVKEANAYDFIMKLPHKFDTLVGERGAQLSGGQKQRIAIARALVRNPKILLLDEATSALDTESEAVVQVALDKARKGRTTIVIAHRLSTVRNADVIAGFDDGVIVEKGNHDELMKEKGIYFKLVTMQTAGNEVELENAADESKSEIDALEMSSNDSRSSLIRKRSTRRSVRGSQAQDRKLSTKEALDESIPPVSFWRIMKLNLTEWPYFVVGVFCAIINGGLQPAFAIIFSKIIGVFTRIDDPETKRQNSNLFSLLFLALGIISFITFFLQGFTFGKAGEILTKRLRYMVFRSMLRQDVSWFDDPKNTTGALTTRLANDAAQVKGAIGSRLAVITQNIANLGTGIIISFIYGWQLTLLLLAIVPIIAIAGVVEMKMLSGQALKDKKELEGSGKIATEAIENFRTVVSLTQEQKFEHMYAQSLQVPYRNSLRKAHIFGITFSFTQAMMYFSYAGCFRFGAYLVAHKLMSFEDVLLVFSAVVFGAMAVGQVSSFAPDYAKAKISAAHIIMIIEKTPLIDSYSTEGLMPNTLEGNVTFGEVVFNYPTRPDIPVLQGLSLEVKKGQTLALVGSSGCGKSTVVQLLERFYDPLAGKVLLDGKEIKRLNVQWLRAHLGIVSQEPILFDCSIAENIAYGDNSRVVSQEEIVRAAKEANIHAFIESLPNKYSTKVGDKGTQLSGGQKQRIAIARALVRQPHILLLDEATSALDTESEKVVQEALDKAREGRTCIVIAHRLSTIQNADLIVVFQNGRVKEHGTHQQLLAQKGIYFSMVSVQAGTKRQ

SMILES	efflux ratio at 2 h, 1 µM (P-gp (MDR1))	IC50 [1]	Papp at 2 h, 1 µM [2]	efflux ratio at 2 h, 1 µM (BCRP)
Cc1c(Nc2c(F)ccc(NS(=O)(=O)c3ccco3)c2Cl)ccc2ncn(C)c(=O)c12 [Example 20, N-(2-chloro-3-((3,5-dimethyl-4-oxo-3,4-dihydroquinazolin-6-yl)amino)-4-fluorophenyl)furan-2-sulfonamide]	1.86	0.7 nM	32.9 ×10⁻⁶ cm/s	7.43
Cc1c(Oc2cccc(NS(=O)(=O)CCCF)c2Cl)ccc2ncn(C)c(=O)c12 [Example 79, N-(2-chloro-3-((3,5-dimethyl-4-oxo-3,4-dihydroquinazolin-6-yl)oxy)phenyl)-3-fluoropropane-1-sulfonamide]	2.14	8.55 nM	23.1 ×10⁻⁶ cm/s	1.06
CCCS(=O)(=O)Nc1cc(F)c(F)c(Nc2ccc3ncn(C)c(=O)c3c2C)c1F [Example 5, N-(3-((3,5-dimethyl-4-oxo-3,4-dihydroquinazolin-6-yl)amino)-2,4,5-trifluorophenyl)propane-1-sulfonamide]	2.24	6.25 nM	26.7 ×10⁻⁶ cm/s	8.33
CCCS(=O)(=O)Nc1ccc(F)c(Nc2ccc3ncn([C@@H]4CCOC4)c(=O)c3c2C)c1Cl [Example 34, (R)-N-(2-chloro-4-fluoro-3-((5-methyl-4-oxo-3-(tetrahydrofuran-3-yl)-3,4-dihydroquinazolin-6-yl)amino)phenyl)propane-1-sulfonamide trifluoroacetate]	1.81	8.9 nM	27.7 ×10⁻⁶ cm/s	2.19
Cc1c(Nc2c(F)ccc(NS(=O)(=O)CCCF)c2F)ccc2ncn(C)c(=O)c12 [Example 2, N-(3-((3,5-dimethyl-4-oxo-3,4-dihydroquinazolin-6-yl)amino)-2,4-difluorophenyl)-3-fluoropropane-1-sulfonamide]	3.92	14.2 nM	30.1 ×10⁻⁶ cm/s	18.6
Cc1c(Nc2cc(F)cc(NS(=O)(=O)CCCF)c2Cl)ccc2ncn(C)c(=O)c12 [Example 44, N-(2-chloro-3-((3,5-dimethyl-4-oxo-3,4-dihydroquinazolin-6-yl)amino)-5-fluorophenyl)-3-fluoropropane-1-sulfonamide]	1.05	6.05 nM	24.2 ×10⁻⁶ cm/s	2.84
CCCS(=O)(=O)Nc1cccc(Nc2ccc3ncn(C)c(=O)c3c2C)c1Cl [Example 3, N-(2-chloro-3-((3,5-dimethyl-4-oxo-3,4-dihydroquinazolin-6-yl)amino)phenyl)propane-1-sulfonamide]	1.37	70.5 nM	25.8 ×10⁻⁶ cm/s	0.87
CCCS(=O)(=O)Nc1ccc(F)c(Nc2ccc3ncn(CC(F)(F)F)c(=O)c3c2C)c1Cl [Example 59, N-(2-chloro-4-fluoro-3-((5-methyl-4-oxo-3-(2,2,2-trifluoroethyl)-3,4-dihydroquinazolin-6-yl)amino)phenyl)propane-1-sulfonamide]	1.36	3.4 nM	25.1 ×10⁻⁶ cm/s	1.08
Cc1c(Oc2cc(F)cc(NS(=O)(=O)CCCF)c2F)ccc2ncn(C)c(=O)c12 [Example 77, N-(3-((3,5-dimethyl-4-oxo-3,4-dihydroquinazolin-6-yl)oxy)-2,5-difluorophenyl)-3-fluoropropane-1-sulfonamide]	1.91	4.25 nM	25.6 ×10⁻⁶ cm/s	4.24
CCCS(=O)(=O)Nc1ccc(F)c(Sc2ccc3ncn(C)c(=O)c3c2C)c1Cl [Example 65, N-(2-chloro-3-((3,5-dimethyl-4-oxo-3,4-dihydroquinazolin-6-yl)thio)-4-fluorophenyl)propane-1-sulfonamide]	1.4	92.4 nM	177 ×10⁻⁶ cm/s	0.9
CCCS(=O)(=O)Nc1nccc(Oc2ccc3ncn(C)c(=O)c3c2C)c1Cl [Example 57, N-(3-chloro-4-((3,5-dimethyl-4-oxo-3,4-dihydroquinazolin-6-yl)oxy)pyridin-2-yl)propane-1-sulfonamide]	0.91	96 nM	–	2.08
Cc1c(Nc2c(F)ccc(NS(=O)(=O)c3ccccc3)c2Cl)ccc2ncn(C)c(=O)c12 [Example 49, N-(2-chloro-3-((3,5-dimethyl-4-oxo-3,4-dihydroquinazolin-6-yl)amino)-4-fluorophenyl)benzenesulfonamide]	1.24	3.95 nM	30.7 ×10⁻⁶ cm/s	0.97
CCCS(=O)(=O)Nc1ccc(F)c(Nc2ccc3ncn(-c4cccnc4)c(=O)c3c2C)c1Cl [Example 58, N-(2-chloro-4-fluoro-3-((5-methyl-4-oxo-3-(pyridin-3-yl)-3,4-dihydroquinazolin-6-yl)amino)phenyl)propane-1-sulfonamide]	2.26	35.5 nM	27.6 ×10⁻⁶ cm/s	1.93
Cc1c(Oc2c(F)ccc(NS(=O)(=O)CCCF)c2F)ccc2ncn(C)c(=O)c12 [Example 56, N-(3-((3,5-dimethyl-4-oxo-3,4-dihydroquinazolin-6-yl)oxy)-2,4-difluorophenyl)-3-fluoropropane-1-sulfonamide]	2.81	12.9 nM	–	3.14
CCCS(=O)(=O)Nc1ccc(F)c(Nc2ccc3ncn(C4CC4)c(=O)c3c2C)c1Cl [Example 31, N-(2-chloro-3-((3-cyclopropyl-5-methyl-4-oxo-3,4-dihydroquinazolin-6-yl)amino)-4-fluorophenyl)propane-1-sulfonamide trifluoroacetate]	1.59	25.1 nM	24.5 ×10⁻⁶ cm/s	1.64
C#Cc1c(Nc2c(F)ccc(NS(=O)(=O)CCC)c2Cl)ccc2ncn(C)c(=O)c12 [Example 60, N-(2-chloro-3-((5-ethynyl-3-methyl-4-oxo-3,4-dihydroquinazolin-6-yl)amino)-4-fluorophenyl)propane-1-sulfonamide]	2.3	9.25 nM	29 ×10⁻⁶ cm/s	2.35
CCCS(=O)(=O)Nc1ccc(Cl)c(Nc2ccc3ncn(C)c(=O)c3c2C)c1Cl [Example 14, N-(2,4-dichloro-3-((3,5-dimethyl-4-oxo-3,4-dihydroquinazolin-6-yl)amino)phenyl)propane-1-sulfonamide]	1.38	13.9 nM	26.5 ×10⁻⁶ cm/s	1.08
CCCS(=O)(=O)Nc1cc(F)c(F)c(Oc2ccc3ncn(C)c(=O)c3c2C)c1F [Example 72, N-(3-((3,5-dimethyl-4-oxo-3,4-dihydroquinazolin-6-yl)oxy)-2,4,5-trifluorophenyl)propane-1-sulfonamide]	1.86	7.7 nM	25.6 ×10⁻⁶ cm/s	1.81
CCCS(=O)(=O)Nc1cc(Cl)cc(Nc2ccc3ncn(C)c(=O)c3c2C)c1F [Example 13, N-(5-chloro-3-((3,5-dimethyl-4-oxo-3,4-dihydroquinazolin-6-yl)amino)-2-fluorophenyl)propane-1-sulfonamide]	1.35	4.6 nM	24.3 ×10⁻⁶ cm/s	1.51
Cc1c(Nc2c(F)ccc(NS(=O)(=O)CCCF)c2Cl)ccc2ncn(C)c(=O)c12 [Example 10, N-(2-chloro-3-((3,5-dimethyl-4-oxo-3,4-dihydroquinazolin-6-yl)amino)-4-fluorophenyl)-3-fluoropropane-1-sulfonamide]	–	–	41 ×10⁻⁶ cm/s	–
Cc1c(Nc2c(F)cnc(NS(=O)(=O)CCCF)c2Cl)ccc2ncn(C)c(=O)c12 [Example 19, N-(3-chloro-4-((3,5-dimethyl-4-oxo-3,4-dihydroquinazolin-6-yl)amino)-5-fluoropyridin-2-yl)-3-fluoropropane-1-sulfonamide]	3.24	6.2 nM	15.9 ×10⁻⁶ cm/s	21.1
CCCS(=O)(=O)Nc1cccc(Oc2ccc3ncn(C)c(=O)c3c2C)c1Cl [Example 78, N-(2-chloro-3-((3,5-dimethyl-4-oxo-3,4-dihydroquinazolin-6-yl)oxy)phenyl)propane-1-sulfonamide]	1.16	10.8 nM	29 ×10⁻⁶ cm/s	0.96
CCCS(=O)(=O)Nc1cc(C)cc(Oc2ccc3ncn(C)c(=O)c3c2C)c1F [Example 75, N-(3-((3,5-dimethyl-4-oxo-3,4-dihydroquinazolin-6-yl)oxy)-2-fluoro-5-methylphenyl)propane-1-sulfonamide]	1.57	74.8 nM	21.5 ×10⁻⁶ cm/s	0.73
[2H]C([2H])([2H])n1cnc2ccc(Nc3c(F)ccc(NS(=O)(=O)CCCF)c3Cl)c(C)c2c1=O [Example 23, N-(2-chloro-4-fluoro-3-((5-methyl-3-(methyl-d3)-4-oxo-3,4-dihydroquinazolin-6-yl)amino)-phenyl)-3-fluoropropane-1-sulfonamide]	–	–	39.5 ×10⁻⁶ cm/s	–
CCCS(=O)(=O)Nc1ccc(F)c(Nc2ccc3ncn(C(C)C)c(=O)c3c2C)c1Cl [Example 36, N-(2-chloro-4-fluoro-3-((3-isopropyl-5-methyl-4-oxo-3,4-dihydroquinazolin-6-yl)amino)phenyl)propane-1-sulfonamide trifluoroacetate]	1.17	26.4 nM	–	1.22
